Where “and” joins values, the source holds several entries; their conditions need not be identical. Identical values can stand only once.
Legend:
[1] = test system: Babesia bovis (Texas strain); experiment: in vitro growth inhibition assay (SYBR Green I fluorescence), single drug and 1:1 combination; assay type: cell-based; settings: B. bovis in vitro culture, 4 days
Protocol: (§1) A microaerophilic stationary-phase culture system was used to maintain Babesia parasite cultures for a long time. Briefly, B. caballi (USDA strain) was grown using equine red blood cells (RBCs) in GIT medium supplemented with 40% equine serum. Theileria equi (USDA strain) was grown in equine RBCs in Medium 199 (M199; Sigma-Aldrich, Tokyo) supplemented with 40% equine serum, and hypoxanthine (MP Biomedicals, Santa Ana, CA, USA) at a final concentration of 13.6 μg/ml was used as a vital supplement. Babesia bovis (Texas strain) and B. bigemina (Argentina strain) were grown in bovine RBCs in M199 medium supplemented with 40% bovine serum. Meanwhile, B. divergens (Germany strain) was grown in bovine RBCs in medium RPMI 1640 (Sigma-Aldrich, Tokyo) supplemented with 40% bovine serum. All media included 60 U/ml penicillin G, 60 μg/ml streptomycin and 0.15 μg/ml amphotericin B (Sigma-Aldrich, St. Louis, MO, USA) to prevent bacterial contamination. The cultures were incubated at 37 °C in a humidified chamber with an atmosphere of 5% CO2, 5% O2 and 90% N2. Babesia microti (Munich strain) was recovered from − 80 °C stock, intraperitoneally injected in two 8-week old female BALB/c mice (Clea Japan, Tokyo, Japan), and the parasitemia was monitored every 2 days. The mice were euthanized using an anesthesia system containing isoflurane after parasitemia reached approximately 30%, and blood was collected by cardiac puncture to initiate the in vivo experiment. The animal experiment was conducted in accordance with the Regulations for Animal Experiments of Obihiro University of Agriculture and Veterinary Medicine, Japan (animal experiment accession number: 290168).
(§2) Assays were performed in accordance with the previously described protocol. Briefly, B. bovis, B. bigemina, B. divergens, B. caballi and T. equi cultures were harvested and adjusted to 1% parasitemia with fresh RBCs to start the inhibition assay. The assays were carried out using 96-well microtiter plates where only the 60 inner wells were used, while the peripheral wells were filled with sterile distillate water to reduce evaporation during incubation. In five 96-well plates, a volume of 2.5 µl each of B. bigemina- and B. bovis-iRBCs and 5 µl each of B. divergens-, B. caballi- and T. equi-iRBCs were added to each well in triplicate and mixed with a culture medium containing the drug concentrations to a total volume of 100 µl. Various concentrations of EA, β-CD EA, APSP EA, DA, CF and AQ were dissolved in a culture medium using two-fold dilution. Wells containing DMSO at a final concentration of 0.4% and iRBCs were used as a positive control, while wells with non-infected RBCs and culture medium were used as a negative control. Additionally, a drug combination assay was performed in parallel with the single drug assay at a constant ratio of 1:1, as described previously. […] The plates were incubated in a humidified incubator with 5% CO2, 5% O2 and 90% N2 for 4 days without changing the medium. On day 4, 100 µl of a lysis buffer containing 2 × SG1 was added to each well. The plates were wrapped with aluminum foil to avoid direct light exposure and incubated at room temperature. After 6 h, fluorescence values were measured using a fluorescence spectrophotometer (Fluoroskan Ascent; Thermo LabSystems, Oceanside, CA, USA) with excitation and emission wavelengths of 485 and 518 nm, respectively. The fluorescence data were subtracted from the negative control and used to calculate the IC50. To calculate the degree of association, the growth-inhibition values obtained were entered into CompuSyn software, based on the combination index (CI) values. […] The experiments were repeated three times.

[2] = test system: Theileria equi (USDA strain); experiment: as above; assay type: cell-based; settings: T. equi in vitro culture, 4 days
Protocol: as §1, §2

[3] = test system: mouse embryonic fibroblast (NIH/3T3) cell line; experiment: cytotoxicity assay (CCK-8); assay type: cell-based; settings: for EC50: NIH/3T3 cells, 24 h exposure, CCK-8
Protocol: (§3) The MDBK cell line was maintained in 75 cm^2 culture flasks with Minimum Essential Medium Eagle (MEM; Gibco, Grand Island, NY, USA), while Dulbecco’s Modified Eagle’s Medium (DMEM; […] Each medium was supplemented with 10% fetal bovine serum, 0.5% penicillin/streptomycin (Gibco), and an additional 1% glutamine. Every 3 to 4 days, the medium was changed, and the cells were incubated until approximately 80% confluent. The cells were free from mycoplasma contamination after being checked by staining with 4,6-diamidino-2-phenylindole dihydrochloride (DAPI; Sigma-Aldrich, St. Louis). The cell detachment from the culture flask was done using TrypLE^TM Express (Gibco) after washing two times with Dulbecco’s phosphate-buffered saline (DPBS). Subsequently, viable cells were counted using a Neubauer Improved C-Chip (NanoEnTek Inc., Seoul, Korea) after staining with 0.4% trypan blue solution. The drug-exposure viability assay was performed in accordance with the recommendation for the Cell Counting Kit-8 (CCK-8; Dojindo, Kumamoto, Japan). Briefly, in a 96-well plate, 100 µl of cells at a density of 5 × 10^4 cells/ml were seeded per well and allowed to attach to the plate for 24 h at 37 °C in a humidified incubator with 5% CO2. Ten microliters of drug diluted two-fold were added to each well to a final concentration of 0.781 to 800 µM in triplicate. Wells with only a culture medium were used as blanks, while wells containing cells and a medium with 0.5% DMSO were used as positive controls. Drug exposure lasted for 24 h. After 24 h, 10 µl of CCK-8 was added, and the plate was further incubated for 3 h. Absorbance was measured at 450 nm using a microplate reader.

[4] = test system: Madin-Darby bovine kidney (MDBK) cell line; experiment: cytotoxicity assay (CCK-8); assay type: cell-based; settings: for EC50: MDBK cells, 24 h exposure, CCK-8
Protocol: as §3

[5] = test system: human foreskin fibroblast (HFF) cell line; experiment: cytotoxicity assay (CCK-8); assay type: cell-based; settings: for EC50: HFF cells, 24 h exposure, CCK-8
Protocol: as §3

[6] = test system: B. bigemina (Argentina strain); experiment: in vitro growth inhibition assay (SYBR Green I fluorescence), single drug and 1:1 combination; assay type: cell-based, Babesia bigemina; settings: B. bigemina in vitro culture, 4 days
Protocol: as §1
(§4) Assays were performed in accordance with the previously described protocol. Briefly, B. bovis, B. bigemina, B. divergens, B. caballi and T. equi cultures were harvested and adjusted to 1% parasitemia with fresh RBCs to start the inhibition assay. The assays were carried out using 96-well microtiter plates where only the 60 inner wells were used, while the peripheral wells were filled with sterile distillate water to reduce evaporation during incubation. In five 96-well plates, a volume of 2.5 µl each of B. bigemina- and B. bovis-iRBCs and 5 µl each of B. divergens-, B. caballi- and T. equi-iRBCs were added to each well in triplicate and mixed with a culture medium containing the drug concentrations to a total volume of 100 µl. Various concentrations of EA, β-CD EA, APSP EA, DA, CF and AQ were dissolved in a culture medium using two-fold dilution. Wells containing DMSO at a final concentration of 0.4% and iRBCs were used as a positive control, while wells with non-infected RBCs and culture medium were used as a negative control. Additionally, a drug combination assay was performed in parallel with the single drug assay at a constant ratio of 1:1, as described previously. […] The plates were incubated in a humidified incubator with 5% CO2, 5% O2 and 90% N2 for 4 days without changing the medium. On day 4, 100 µl of a lysis buffer containing 2 × SG1 was added to each well. The plates were wrapped with aluminum foil to avoid direct light exposure and incubated at room temperature. After 6 h, fluorescence values were measured using a fluorescence spectrophotometer (Fluoroskan Ascent; Thermo LabSystems, Oceanside, CA, USA) with excitation and emission wavelengths of 485 and 518 nm, respectively. The fluorescence data were subtracted from the negative control and used to calculate the IC50. […]

B. caballi (USDA strain) = experiment: as above; assay type: cell-based, Babesia caballi; settings: B. caballi in vitro culture, 4 days
Protocol: as §1, §4

[7] = test system: B. divergens (Germany strain); experiment: as above; assay type: cell-based, Babesia divergens; settings: B. divergens in vitro culture, 4 days
Protocol: as §1, §4

B. microti = experiment: nested PCR detection of B. microti ss-rRNA gene in blood of treated mice; assay type: in vivo, Babesia microti; settings: day 42; 25 mg/kg DA
[8] = test system: Babesia microti (Munich strain); experiment: in vivo growth inhibition and drug combination assays in B. microti-infected BALB/c mice; settings: for peak parasitemia level: 5 days
Protocol: as §1
In vivo growth inhibition assays of EA, β-CD EA and APSP EA were performed in B. microti-infected BALB/c mice in accordance with the previous protocol in two separate trials. […] The mice in groups 2–8 were intraperitoneally (i.p.) injected with 0.5 ml of inoculum (1 × 10^7 B. microti-iRBCs). Group 1 was left uninfected and untreated as a negative control. When the average parasitemia in all mice reached 1%, drug treatment was initiated for 5 consecutive days. […] DA at a concentration of 25 mg/kg body weight (BW) was administrated i.p. to the third group as a reference drug control.

With CC(=O)NCC(=O)O.CC(=O)NCC(=O)O.N=C(N)c1ccc(N=NNc2ccc(C(=N)N)cc2)cc1 [DA, diminazene aceturate] the IC50 [1] was 0.35 ± 0.06 µM, the IC50 [2] was 0.71 ± 0.05 µM and the “inhibition of cell viability” value ([3]; NIH/3T3, 100 µM, separate assay) was “did not show any inhibition”. The EC50 [3] was > 100 µM, the EC50 [4] was > 100 µM and the “inhibition of cell viability” value ([4]; MDBK, 100 µM, separate assay) was “did not show any inhibition”. For the same compound, the EC50 [5] was > 100 µM, the “inhibition of cell viability” value ([5]; HFF, 100 µM, separate assay) was “did not show any inhibition” and the IC50 [6] was 0.68 ± 0.09 µM. For the same compound, the IC50 (B. caballi (USDA strain)) was 0.022 µM and 0.02 µM, the IC50 [7] was 0.43 ± 0.05 µM and the “parasite DNA in blood (nPCR)” value (B. microti) was “not detected”. For the same compound, the peak parasitemia level ([8]; first assay, 25 mg/kg DA i.p., peak on day 8, DDW control 57.7%) was 5.2%, the “day p.i. from which parasitemia was undetectable by microscopic examination” value ([8]; second assay, 25 mg/kg DA) was 13 day p.i and the peak parasitemia level ([8]; second assay, 25 mg/kg DA i.p., DDW control 58.3%) was 3.9%.
CC(C)/N=c1\cc2n(-c3ccc(Cl)cc3)c3ccccc3nc-2cc1Nc1ccc(Cl)cc1 [CF, clofazimine] was tested, and the IC50 ([1]; Babesia bovis, in Bos taurus, 96 h) was 8.24 ± 1.7 µM, the IC50 ([2]; Theileria equi, 96 h) was 2.88 ± 0.9 µM and the “Selective indices NIH/3T3” value ([3]; EC50 NIH/3T3 / IC50 B. bigemina) was “˃ 17.5”. For the same compound, the “Selective indices NIH/3T3” value ([3]; EC50 NIH/3T3 / IC50 B. bovis) was “˃ 12.1”, the “Selective indices NIH/3T3” value ([3]; EC50 NIH/3T3 / IC50 B. caballi) was “˃ 12.6” and the “Selective indices NIH/3T3” value ([3]; EC50 NIH/3T3 / IC50 B. divergens) was “˃ 7.2”. For the same compound, the “Selective indices NIH/3T3” value ([3]; EC50 NIH/3T3 / IC50 T. equi) was “˃ 34.7”, the EC50 ([3]; Mus musculus, NIH3T3) was > 100 µM and the EC50 ([4]; Bos taurus, MDBK, 24 h) was 34 ± 3.4 µM. The “Selective indices MDBK” value ([4]; EC50 MDBK / IC50 B. bigemina) was 6.1, the “Selective indices MDBK” value ([4]; EC50 MDBK / IC50 B. bovis) was 4.2 and the “Selective indices MDBK” value ([4]; EC50 MDBK / IC50 B. caballi) was 4.4. The “Selective indices MDBK” value ([4]; EC50 MDBK / IC50 B. divergens) was 2.5, the “Selective indices HFF” value ([5]; EC50 HFF / IC50 B. bigemina) was “˃ 17.5” and the “Selective indices HFF” value ([5]; EC50 HFF / IC50 B. bovis) was “˃ 12.1”. For the same compound, the “Selective indices HFF” value ([5]; EC50 HFF / IC50 B. caballi) was “˃ 12.6”, the “Selective indices HFF” value ([5]; EC50 HFF / IC50 B. divergens) was “˃ 7.2” and the “Selective indices HFF” value ([5]; EC50 HFF / IC50 T. equi) was “˃ 34.7”. For the same compound, the EC50 ([5]; Homo sapiens) was > 100 µM, the IC50 ([6]; Babesia bigemina, 96 h) was 5.73 ± 1.9 µM and the IC50 (B. caballi (USDA strain); Babesia caballi, 96 h) was 7.95 ± 1.8 µM. For the same compound, the IC50 ([7]; Babesia divergens, 96 h) was 13.8 ± 4.3 µM, the “day p.i. from which parasitemia was undetectable by microscopic examination” value ([8]; second assay, 20 mg/kg CF) was 16 day p.i and the peak parasitemia level ([8]; second assay, 20 mg/kg CF oral, DDW control 58.3%) was 4.9%.
